Assay results as given in patent publication US20250092065A1, “2-(INDAZOL-5-YL)-6-(PIPERIDIN-4-YL)-1,7-NAPHTHYRIDINE DERIVATIVES AND RELATED COMPOUNDS AS MODULATORS FOR SPLICING NUCLEIC ACIDS AND FOR THE TREATMENT OF PROLIFERATIVE DISEASES” (REMIX THERAPEUTICS INC., priority 2022, published 2025).
Like-named read-outs stand apart in the source and are kept apart here.

Columns and labels:
MYB = test: HiBiT protein abundance assay, MYB (K562 HiBiT knock-in); assay type: cell-based, human; conditions: HiBiT knock-in K562 cells, 24 hours, top dose 10 μM
Procedure, shortened: (§1)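 Luminescence readout: Nano-Glo HiBiT lytic detection after 24 h compound exposure of K562 HiBiT knock-in cells, 10000 cells/well. Dosing 10-pt, 3-fold, top 10 μM final. % response vs untreated parental K562 and DMSO controls; 4PL fit, IC50 = concentration giving 50% protein abundance.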

HTT = test: HiBiT protein abundance assay, HTT (K562 HiBiT knock-in); assay type: cell-based, human; conditions: HiBiT knock-in K562 cells, 24 hours, top dose 10 μM
Procedure, shortened: as §1

K562 cells = test: Cell Titer Glo 2.0 cell viability (toxicity) assay, K562; conditions: 500 cells/well, 72 hours
Experimental: Compounds described herein were screened for toxicity in K562 (human chronic myelogenous leukemia) and SH-SY5Y (human neuroblastoma) cells using a Cell Titer Glo 2.0 assay.
Cells were plated at 500 cells/well (K562 cells) in 45 μL of IMDM supplemented with 10% FBS in a 384-well opaque plate. Wells containing only medium were used as a blank control. Test compounds (e.g., compounds of Formula (I) or (II)) were first serially diluted in DMSO then diluted 1:100 with EIDM+10% FBS. The final concentration of DMSO was 0.1% in each well. The cells were incubated for 72 hours at 37° C. and 5% CO2 before assaying with Cell Titer Glo 2.0 reagent.

HTT mRNA = test: RT-qPCR splicing assay, HTT mRNA canonical (CJ) and alternative (AJ) junction; assay type: cell-based, human; conditions: Homo sapiens; for AC50: HTT alternative junction mRNA, read-out: HTT AJ (increase in AJ mRNA, AC50)
Procedure, shortened: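 A673 or K562 cells treated 24 h at 37 °C with an 11-point 3-fold dilution series (top 10 uM, DMSO ≤0.25%). Lysates went directly to one-step RT-qPCR quantifying canonical (CJ) and alternative-exon (AJ) junctions, normalized to GAPDH, GUSB or PPIA. Values from ΔΔCt versus DMSO, RQ = 2^(−ΔΔCt), expressed as percentage response.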

Target C = test: HiBiT protein abundance assay, Target C (K562 HiBiT knock-in); assay type: cell-based, human; conditions: HiBiT knock-in K562 cells, 24 hours, top dose 10 μM
Procedure, shortened: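 K562 HiBiT knock-in cells (10000/well) were treated 24 h at 37° C with a 10-point 3-fold dilution series (top 10 μM final, ≤0.25% DMSO). HiBiT luminescence was read after lytic LgBiT detection. Percent response used unmodified K562 and DMSO-treated knock-in controls, and IC50 came from a four-parameter fit at 50% of untreated.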

[1] = HTT canonical junction mRNA, RT-qPCR, read-out: HTT CJ (decrease in CJ mRNA levels, IC50)
[2] = canonical junction qPCR panel, Table 4, read-out: HTT IC50 (decrease in CJ mRNA levels)

| Structure (SMILES) | IC50 (MYB) | IC50 (HTT) | IC50 (HTT mRNA; [1]) | IC50 (HTT mRNA; [2]) | IC50 (Target C) | Effect of Exemplary Compounds on Cell Viability, K562 (K562 cells) | AC50 (HTT mRNA; RT-qPCR) |
| --- | --- | --- | --- | --- | --- | --- | --- |
| Cc1nc2cc(O)c(-c3ccc4nc(N5CCNC(C(C)(C)C)C5)ccc4n3)cc2o1 (centres unmarked) [Compound 492] | 100 to 1000 nM | 100 to 1000 nM | 100 to 1000 nM | 100 to 1000 nM | 1000 to 10000 nM | C (C represents 1000-9999 nM) | 100 to 1000 nM |
| Cc1nc2cc(O)c(-c3ccc4nc(N5CC[C@@H](N(C)C(C)(C)C)C5)ccc4n3)cc2o1 [Compound 493] | < 100 nM | < 100 nM | < 100 nM | < 100 nM | < 100 nM | A (A represents <100 nM) | < 100 nM |
| Cc1c(O)c(-c2nc(C(=O)N(C)C)c3cc(N4CCNCC4)ccc3n2)cc2cn(C)nc12 [Compound 502, 2-(6-hydroxy-2,7-dimethylindazol-5-yl)-N,N-dimethyl-6-(piperazin-1-yl)quinazoline-4-carboxamide] | 1000 to 10000 nM | 1000 to 10000 nM | 1000 to 10000 nM | 1000 to 10000 nM | 1000 to 10000 nM | C (C represents 1000-9999 nM) | 1000 to 10000 nM |
| CCNC(=O)c1nc(-c2cc3cn(C)nc3c(C)c2O)nc2ccc(N3CCNCC3)cc12 [Compound 503, N-ethyl-2-(6-hydroxy-2,7-dimethylindazol-5-yl)-6-(piperazin-1-yl)quinazoline-4-carboxamide] | < 100 nM | < 100 nM | < 100 nM | < 100 nM | 100 to 1000 nM | A (A represents <100 nM) | < 100 nM |
| CNC(=O)c1nc(-c2cc(F)c3nc(C)cn3c2)nc2ccc(N3CCNCC3)cc12 [Compound 505, 2-{8-fluoro-2-methylimidazo[1,2-a]pyridin-6-yl}-N-methyl-6-(piperazin-1-yl) quinazoline-4-carboxamide] | < 100 nM | 100 to 1000 nM | 100 to 1000 nM | 100 to 1000 nM | 100 to 1000 nM | B (B represents 100-1000 nM) | 100 to 1000 nM |
| CNC(=O)c1nc(-c2cc3cn(C)nc3c(C)c2O)nc2ccc(N3CCC(N(C)C)CC3)cc12 [Compound 507, 6-[4-(dimethylamino)piperidin-1-yl]-2-(6-hydroxy-2,7-dimethylindazol-5-yl)-N-methylquinazoline-4-carboxamide] | < 100 nM | 100 to 1000 nM | 100 to 1000 nM | 100 to 1000 nM | 1000 to 10000 nM | A (A represents <100 nM) | 1000 to 10000 nM |
| CNC(=O)c1nc(-c2cc3cn(C)nc3c(C)c2O)nc2ccc(N3CCC(NC)C3)cc12 (centres unmarked) [Compound 510, 2-(6-hydroxy-2,7-dimethylindazol-5-yl)-N-methyl-6-[3-(methylamino)pyrrolidin-1-yl]quinazoline-4-carboxamide] | < 100 nM | < 100 nM | < 100 nM | < 100 nM | 100 to 1000 nM | A (A represents <100 nM) | 100 to 1000 nM |
| CNC(=O)c1nc(-c2cc3cn(C)nc3c(C)c2O)nc2ccc(N3C[C@@H](C)N[C@@H](C)C3)cc12 [Compound 511, 6-[(3R,5S)-3,5-dimethylpiperazin-1-yl]-2-(6-hydroxy-2,7-dimethylindazol-5-yl)-N-methylquinazoline-4-carboxamide] | < 100 nM | 100 to 1000 nM | 100 to 1000 nM | 100 to 1000 nM | 1000 to 10000 nM | A (A represents <100 nM) | 100 to 1000 nM |
| CC(=O)c1nc(-c2cc3cn(C)nc3c(F)c2O)nc2ccc(N3CCNCC3)cc12 [Compound 513, 1-(2-(7-fluoro-6-hydroxy-2-methyl-2H-indazol-5-yl)-6-(piperazin-1-yl)quinazolin-4-yl)ethan-1-one 2,2,2-trifluoroacetate] | < 100 nM | 100 to 1000 nM | 1000 to 10000 nM | 1000 to 10000 nM | 1000 to 10000 nM | A (A represents <100 nM) | 1000 to 10000 nM |
| Cn1cc2cc(-c3nc(C#N)c4cc(N5CCNCC5)ccc4n3)c(O)c(F)c2n1 [Compound 514, 2-(7-fluoro-6-hydroxy-2-methylindazol-5-yl)-6-(piperazin-1-yl) quinazoline-4-carbonitrile; trifluoroacetic acid] | < 100 nM | 100 to 1000 nM | 100 to 1000 nM | 100 to 1000 nM | 100 to 1000 nM | A (A represents <100 nM) | 1000 to 10000 nM |

Continued, in another order:

| IC50 (MYB) | IC50 (HTT) | IC50 (HTT mRNA; [1]) | IC50 (HTT mRNA; [2]) | IC50 (Target C) | Structure (SMILES) | Effect of Exemplary Compounds on Cell Viability, K562 (K562 cells) | AC50 (HTT mRNA; RT-qPCR) |
| --- | --- | --- | --- | --- | --- | --- | --- |
| < 100 nM | 100 to 1000 nM | 100 to 1000 nM | 100 to 1000 nM | 100 to 1000 nM | Cc1c(O)c(-c2ncc3cc(N4C[C@@H](C)N[C@H](C)C4)ccc3n2)cc2cn(C)nc12 (single isomer, unassigned) [Compound 661] | B (B represents 100-1000 nM) | 1000 to 10000 nM |
| < 100 nM | 100 to 1000 nM | 100 to 1000 nM | 100 to 1000 nM | 100 to 1000 nM | CNC(=O)c1nc(-c2cc3cn(C)nc3c(F)c2O)nc2ccc(N3C[C@@H](C)N[C@H](C)C3)cc12 (single isomer, unassigned) [Compound 668] | A (A represents <100 nM) | 1000 to 10000 nM |
| < 100 nM | 100 to 1000 nM | 100 to 1000 nM | 100 to 1000 nM | 100 to 1000 nM | CNC(=O)c1nc(-c2cc3cn(C)nc3c(F)c2O)nc2ccc(N3C[C@H](C)N[C@@H](C)C3)cc12 (single isomer, unassigned) [Compound 669] | A (A represents <100 nM) | 100 to 1000 nM |
| < 100 nM | 100 to 1000 nM | 100 to 1000 nM | 100 to 1000 nM | 100 to 1000 nM | CNC(=O)c1nc(-c2cc3cn(C)nc3cc2O)nc2ccc(N3C[C@H](C)N[C@@H](C)C3)cc12 (single isomer, unassigned) [Compound 676] | A (A represents <100 nM) | 100 to 1000 nM |
| < 100 nM | 100 to 1000 nM | 100 to 1000 nM | 100 to 1000 nM | 100 to 1000 nM | CNC(=O)c1nc(-c2cc3cn(C)nc3cc2O)nc2ccc(N3C[C@@H](C)N[C@H](C)C3)cc12 (single isomer, unassigned) [Compound 677] | B (B represents 100-1000 nM) | 1000 to 10000 nM |
| < 100 nM | 100 to 1000 nM | 100 to 1000 nM | 100 to 1000 nM | 100 to 1000 nM | Cc1cn2cc(-c3ccc4cc(N5C[C@H](C)N[C@@H](C)C5)cc(F)c4n3)cc(F)c2n1 (single isomer, unassigned) [Compound 705, 2,2,2-trifluoroacetate] | A (A represents <100 nM) | 100 to 1000 nM |
| < 100 nM | < 100 nM | < 100 nM | < 100 nM | < 100 nM | Cn1cc2cc(-c3ncc4nc(C5CCNCC5)ccc4n3)c(O)c(F)c2n1 [Compound 155] | A (A represents <100 nM) | < 100 nM |
